Test results as given in patent US9132127B2, “Substituted pyrido[2,3-B]pyrazines as IP receptor agonists” (Novartis AG, priority 2010, dated 2015).

target: T1, IP receptor (Homo sapiens, UniProt P43119); test: cAMP accumulation in CHO cells stably expressing the IP receptor (CHO-IP), PerkinElmer AlphaScreen assay; assay type: cell-based; details: 1 hour at room temperature, Table 1, read-out: EC50
T1 construct: expressed in transfected cells; host or cells: CHO cells stably expressing the IP receptor (CHO-IP)
Protocol: Activity of compounds at the IP receptor (IP receptor) is assessed by measuring cAMP accumulation in CHO cells stably expressing the IP receptor (CHO-IP) using the PerkinElmer AlphaScreen assay. This technology measures the endogenous production of cAMP, in a non-radioactive luminescence proximity homogenous assay. A biological reaction occurs between streptavidin coated donor beads, biotinylated cAMP and anti-cAMP acceptor beads, bringing the donor and acceptor beads close enough together so that upon excitation a fluorescence signal is produced. On production of endogenous cAMP, competition between the biotinylated cAMP and cellular-derived cAMP causes a reduction in the fluorescent signal. The reduction in signal is proportional to the amount of cAMP being produced, thus it is possible to quantify the amount of cAMP being produced on stimulation with agonist.
Test and reference compounds are prepared at 100×[final] in 100% DMSO, and diluted 1:3 using a Biomek Fx (Beckman Coulter). This is followed by an intermediate dilution to give 5×[final] in assay buffer (HBSS containing 5 mM HEPES, 0.1% (w/v) BSA). 5 μL of 5×[final] test compounds, reference compounds and buffer/DMSO control are then transferred to a 384-well white OptiPlate, containing 20 μL CHO—IP cell suspension (15,000 cells/well, prepared from frozen), and plate is incubated at room temperature for 1 hour. A cAMP standard curve is constructed for each experiment (concentration range of 10000 nM to 0.001 nM, in assay buffer) and 25 μL of each concentration added to the last two columns of the assay plate. The incubation is terminated by the addition of lysis buffer (dH2O; 0.3% (v v^−1) Tween-20) containing 20 units mL^−1 streptavidin coated donor beads and biotinylated cAMP (pre-incubated for 30 minutes) and 20 units mL^−1 anti-cAMP acceptor beads, which are added to the lysis buffer just before addition to the assay plate. The assay plate is then incubated at room temperature in the dark, for 60 minutes with gentle shaking, and read on the Envision plate reader (Perkin Elmer).
The raw data of the reference compounds, test compounds and controls are converted into cAMP concentrations, using the cAMP standard curve, in GraphPadPrism (GraphPad Software Inc). EC50 as well as maximal values of the agonist curves are determined using a 4-parameter logistic equation. The % maximum response values of all test compounds are determined using the top of the treprostinil concentration-response curve.

T1 sequence (P43119 whole entry): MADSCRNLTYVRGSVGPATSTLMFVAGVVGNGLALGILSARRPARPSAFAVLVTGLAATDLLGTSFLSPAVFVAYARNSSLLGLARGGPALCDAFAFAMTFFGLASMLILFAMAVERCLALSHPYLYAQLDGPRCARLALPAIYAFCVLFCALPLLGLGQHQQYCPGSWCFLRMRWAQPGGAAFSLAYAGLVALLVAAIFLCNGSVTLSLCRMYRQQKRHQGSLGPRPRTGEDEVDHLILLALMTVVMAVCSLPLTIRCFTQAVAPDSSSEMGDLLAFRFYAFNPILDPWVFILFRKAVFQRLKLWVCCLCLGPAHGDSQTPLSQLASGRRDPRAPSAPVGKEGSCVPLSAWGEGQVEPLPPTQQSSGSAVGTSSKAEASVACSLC

EC50 | SMILES
57 nM | Cc1ccc(-c2nc3c(nc2-c2ccc(C)cc2)N(CCCC(O)C(O)CC(=O)O)CCC3)cc1 (racemic) [Example 15.1, rac-7-(2,3-Dip-tolyl-7,8-dihydropyrido[2,3-b]pyrazin-5(6H)-yl)-3,4-dihydroxyheptanoic acid]
30 nM | CN1c2nc(-c3ccccc3)c(-c3ccccc3)cc2CCC1CCCCCC(=O)O (single isomer, unassigned) [Example 2.1, 6-(1-methyl-6,7-diphenyl-1,2,3,4-tetrahydro-1,8-naphthyridin-2-yl)hexanoic acid]
100 nM | CN1c2nc(-c3ccccc3)c(-c3ccccc3)cc2CCC1CCCCCC(=O)O (single isomer, unassigned) [Example 2.2, 6-(1-methyl-6,7-diphenyl-1,2,3,4-tetrahydro-1,8-naphthyridin-2-yl)hexanoic acid]
36 nM | CC1CCc2cc(-c3ccccc3)c(-c3ccccc3)nc2N1CCCCCCC(=O)O (single isomer, unassigned) [Example 3.1, 7-(2-methyl-6,7-diphenyl-3,4-dihydro-1,8-naphthyridin-1(2H)-yl)heptanoic acid]
245 nM | CC1CCc2cc(-c3ccccc3)c(-c3ccccc3)nc2N1CCCCCCC(=O)O (single isomer, unassigned) [Example 3.2, 7-(2-methyl-6,7-diphenyl-3,4-dihydro-1,8-naphthyridin-1(2H)-yl)heptanoic acid]
0.13 nM | Cc1ccc(-c2nc3c(nc2-c2ccc(C)cc2)N(CCCCCCC(=O)O)C(C)CC3)cc1 (single isomer, unassigned) [Example 4.14, 7-(6-methyl-2,3-dip-tolyl-7,8-dihydropyrido[2,3-b]pyrazin-5(6H)-yl)heptanoic acid]
0.48 nM | Cc1ccc(-c2nc3c(nc2-c2ccc(C)cc2)N(CCCCCCC(=O)O)C(C)CC3)cc1 (single isomer, unassigned) [Example 4.15, 7-(6-methyl-2,3-dip-tolyl-7,8-dihydropyrido[2,3-b]pyrazin-5(6H)-yl)heptanoic acid]
0.49 nM | Cc1ccc(-c2nc3c(nc2-c2ccc(C)cc2)N(CCCCCCC(=O)O)CC(O)C3O)cc1 (single isomer, unassigned) [Example 8.2a, 7-(7,8-dihydroxy-2,3-dip-tolyl-7,8-dihydropyrido[2,3-b]pyrazin-5(6H)-yl)heptanoic acid]
0.89 nM | Cc1ccc(-c2nc3c(nc2-c2ccc(C)cc2)N(CCCCCCC(=O)O)CC(O)C3O)cc1 (single isomer, unassigned) [Example 8.2b, 7-(7,8-dihydroxy-2,3-dip-tolyl-7,8-dihydropyrido[2,3-b]pyrazin-5(6H)-yl)heptanoic acid]
0.296 nM | Cc1ccc(-c2nc3c(nc2-c2ccc(C)cc2)N(CCCCCCC(=O)O)CCC3O)cc1 (single isomer, unassigned) [Example 9.8, rac-7-(8-Hydroxy-2,3-dip-tolyl-7,8-dihydropyrido[2,3-b]pyrazin-5(6H)-yl)heptanoic acid]
0.4 nM | Cc1ccc(-c2nc3c(nc2-c2ccc(C)cc2)N(CCCCCCC(=O)O)CCC3O)cc1 (single isomer, unassigned) [Example 9.8a, 7-(8-Hydroxy-2,3-dip-tolyl-7,8-dihydropyrido[2,3-b]pyrazin-5(6H)-yl)heptanoic acid]
1.8 nM | Cc1ccc(-c2nc3c(nc2-c2ccc(C)cc2)N(CCCCCCC(=O)O)CCC3O)cc1 (single isomer, unassigned) [Example 9.8b, 7-(8-Hydroxy-2,3-dip-tolyl-7,8-dihydropyrido[2,3-b]pyrazin-5(6H)-yl)heptanoic acid]
0.0718 nM | Cc1ccc(-c2nc3c(nc2-c2ccc(C)cc2)N(CCCCCCC(=O)O)CC(O)C3)cc1 (single isomer, unassigned) [Example 14.1, 7-(7-hydroxy-2,3-dip-tolyl-7,8-dihydropyrido[2,3-b]pyrazin-5(6H)-yl)heptanoic acid]
0.0627 nM | Cc1ccc(-c2nc3c(nc2-c2ccc(C)cc2)N(CCCCCCC(=O)O)CC(O)C3)cc1 (single isomer, unassigned) [Example 14.2, 7-(7-hydroxy-2,3-dip-tolyl-7,8-dihydropyrido[2,3-b]pyrazin-5(6H)-yl)heptanoic acid]
3 nM | COC1Cc2nc(-c3ccc(C)cc3)c(-c3ccc(C)cc3)nc2N(CCCCCCC(=O)O)C1 (single isomer, unassigned) [Example 17.1a, 7-(7-methoxy-2,3-dip-tolyl-7,8-dihydropyrido[2,3-b]pyrazin-5(6H)-yl)heptanoic acid]
4.8 nM | COC1Cc2nc(-c3ccc(C)cc3)c(-c3ccc(C)cc3)nc2N(CCCCCCC(=O)O)C1 (single isomer, unassigned) [Example 17.1b, 7-(7-methoxy-2,3-dip-tolyl-7,8-dihydropyrido[2,3-b]pyrazin-5(6H)-yl)heptanoic acid]
5.5 nM | O=C(O)CCCCCCN1CCCc2cc(-c3ccccc3)c(-c3ccccc3)nc21 [Example 1.1, 7-(6,7-Diphenyl-3,4-dihydro-1,8-naphthyridin-1(2H)-yl)heptanoic acid]
1.2 nM | O=C(O)CCCCCCN1CCCc2nc(-c3ccccc3)c(-c3ccccc3)nc21 [Example 4.1, 7-(2,3-diphenyl-7,8-dihydropyrido[3,2-b]pyrazin-5(6H)-yl)heptanoic acid]
0.11 nM | Cc1ccc(-c2nc3c(nc2-c2ccc(C)cc2)N(CCCCCCC(=O)O)CCC3)cc1 [Example 4.3, 7-(2,3-Dip-tolyl-7,8-dihydropyrido[2,3-b]pyrazin-5(6H)-yl)heptanoic acid]
0.08 nM | Cc1ccc(-c2nc3c(nc2-c2ccccc2)CCCN3CCCCCCC(=O)O)cc1 [Example 5.2, 7-(2-Phenyl-3-p-tolyl-7,8-dihydropyrido[2,3-b]pyrazin-5(6H)-yl)heptanoic acid]
0.32 nM | Cc1ccc(-c2nc3c(nc2-c2ccc(C)c(F)c2)N(CCCCCCC(=O)O)CCC3)cc1F [Example 6.1, 7-(2,3-bis(3-Fluoro-4-methylphenyl)-7,8-dihydropyrido[2,3-b]pyrazin-5(6H)-yl)heptanoic acid]
5.6 nM | O=C(O)CCCCCCN1CC[C@@H](O)c2nc(-c3ccccc3)c(-c3ccccc3)nc21 [Example 9.1, (R)-7-(8-Hydroxy-2,3-diphenyl-7,8-dihydropyrido[2,3-b]pyrazin-5(6H)-yl)heptanoic acid]
8.6 nM | O=C(O)CCCCCCN1CC[C@H](O)c2nc(-c3ccccc3)c(-c3ccccc3)nc21 [Example 9.2, (S)-7-(8-Hydroxy-2,3-diphenyl-7,8-dihydropyrido[2,3-b]pyrazin-5(6H)-yl)heptanoic acid]
0.0754 nM | Cc1ccc(-c2nc3c(nc2-c2ccc(C)cc2)N(CCCCCCC(=O)O)C(=O)CC3)cc1 [Example 12.1, 7-(6-oxo-2,3-dip-tolyl-7,8-dihydropyrido[2,3-b]pyrazin-5(6H)-yl)heptanoic acid]
0.74 nM | Cc1ccc(-c2nc3c(nc2-c2ccc(C)cc2)N(CCCCCCC(=O)O)C(=O)C(O)C3)cc1 (stereo not shown) [Example 16.1, 7-(7-Hydroxy-6-oxo-2,3-dip-tolyl-7,8-dihydropyrido[2,3-b]pyrazin-5(6H)-yl)heptanoic acid]

same assay, conditions: read-out: EC50 values in the data measurements described above

EC50 | SMILES
> 10000 nM | O=C(O)CCCCN1CCCc2cc(-c3ccccc3)c(-c3ccccc3)nc21 [5-(6,7-diphenyl-3,4-dihydro-1,8-naphthyridin-1(2H)-yl)pentanoic acid]
> 10000 nM | CCCc1ccc(-c2nc3c(nc2-c2ccc(CCC)cc2)N(CCCCCC(=O)OCC)CCC3)cc1 [ethyl 6-(2,3-bis(4-propylphenyl)-7,8-dihydropyrido[2,3-b]pyrazin-5(6H)-yl)hexanoate]
> 10000 nM | CCOC(=O)CCCCCCN1CCCc2nc(-c3cccc(C)c3)c(-c3ccc(C)cc3)nc21 [ethyl 7-(2-(m-tolyl)-3-(p-tolyl)-7,8-dihydropyrido[2,3-b]pyrazin-5(6H)-yl)heptanoate]
